According to US4829082A, “Pharmaceutical compositions for the treatment of skin diseases” (Nisshin Chemicals Co., Ltd., priority 1986, dated 1989):
Where “and” joins values, the source holds several entries; their conditions need not be identical. Equal values may be shown once.

Experiments:
Acute toxicity in mice = details: mouse, in vivo
burn ulcer = assay: Burn ulcer, human patient (Test Example 4); format: in vivo; details: same ointment as Test Example 2 (0.5%), after one week
callosity = assay: Callosity, human patient (Test Example 9); format: in vivo; details: lotion containing 0.5% by weight of TOC ester, about two weeks
skin pruritus = assay: Skin pruritus, human patient (Test Example 7); format: in vivo; details: same ointment as Test Example 2 (0.5%)
housewife eczema = assay: Housewife eczema, human patient (Test Example 11); format: in vivo; details: same hydrophilic ointment as Test Example 10 (0.3%), in a week
eyes of rabbits = assay: Irritation on eyes of rabbits; format: in vivo; details: physiological salt suspensions containing 0.05% and 0.5% of TOC ester
Text: Irritation on eyes of rabbits

rats = assay: Percutaneous subacute toxicity in rats; format: in vivo; details: lotions containing 0.5% and 1.5% of TOC ester
Experimental: Percutaneous subacute toxicity in rats
Tests were conducted for 30 days using lotions containing 0.5% and 1.5% of TOC ester, respectively.

skin keratosis = assay: Skin keratosis, human patient (Test Example 8); format: in vivo; details: same ointment as Test Example 2 (0.5%), three days after treatment
human being = assay: Chafe on human being (Patch test); format: in vivo; details: cream containing 0.1% and 0.3% of TOC ester
Text: Chafe on human being (Patch test)

eczema craquele = assay: Eczema craquele (cracking and chaps), human patient (Test Example 10); format: in vivo; details: hydrophilic ointment containing 0.3% by weight of TOC ester
Text: [Eczema craquele (cracking and chaps)]

guinea pigs = assay: Appearance of skin allergy in guinea pigs (induction test); format: in vivo; details: challenge two weeks after sensitization, 0.1 ml acetone solution containing 0.05%, 0.10% and 0.20% of TOC ester
Experimental: Appearance of skin allergy in guinea pigs
Induction tests were conducted, wherein guinea pigs were sensitized with 0.1 ml of 30% chloroform solution, and two weeks after sensitization, the pigs were treated on the skin with 0.1 ml of acetone solution containing 0.05%, 0.10% and 0.20% of TOC ester, respectively.

[1] = General statement on toxicity, side effects and healing effect
experimental bedsore = assay: Experimental bedsore of rabbits; format: in vivo, Japanese white male rabbits
Text: (Experimental bedsore of rabbits)
Japanese white male rabbits weighing 2.5-4.4 kg were used.
An experimental bedsore was formed on the rabbits in accordance with the methods of Kosiak (Arch. Phys. Med. Rehabil., Vbl. 40, 62-69, 1959) and Fukawa et al. (Applied Pharmacology, Vol. 23, No. 6, 999-1011, 1982). The rabbits were anethetized with Nembutal® and fixed so that the shaved right trochanteric region of the rabbits was held horizontally, a pressure of 500-600 mmHg/cm^2 was applied to 2 cm^2 area of the skin in the shaved region, and the rabbits were held for 5-10 hours to allow development of bedsore. Two days after application of the pressure, occurrence of bedsore was confirmed.
The affective rabbits were distributed to two groups. One group (5 rabbits) was coated on the surface of bedsore region with a lotion containing 0.5% by weight of TOC ester by a brush once a day (said lotion being prepared from 900 parts by weight of water, 95 parts by weight of ethanol and 5 parts by weight of TOC ester). The other control group (4 rabbits) was coated once a day with only the base of the lotion (mixture of 900 parts of weight of water and 95 parts by weight of ethanol). One week after the treatment, a sheet of Japanese paper was applied to the bedsore area occurred in each rabbit. The injured area of said bedsore was transferred to the paper according to the etching method, and the transferred areas were measured by means of a planimeter.

[2] = system: ulcer produced after zoster; assay: Zoster, human patient (Test Example 6); format: in vivo
Text: To an ulcer produced after zoster had occurred on the neck through the shoulder of a person was applied a gauze over which the same ointment as used in Test Example 2 had been spread.

bedsore = assay: Bedsore, human patient (Test Example 2); format: in vivo; details: oil ointment containing 0.5% by weight of TOC ester on gauze
Text: An oil ointment containing 0.5% by weight of TOC ester spread on a gauze was applied to the bedsore areas occurred in the ischium and whirlbone of a person lying in bed for a long time suffering from injury of myelon, said gauze being embedded in a depressed region of deep ulcer of bedsore after crumpling the gauze into a ball, and being applied as it was to a superficial region of the ulcer. The gauze was exchanged once or twice a day.

frostbite = assay: Frostbite, human patient (Test Example 5); format: in vivo; details: same ointment as Test Example 2 (0.5%), about one week
dermal ulcer = assay: Dermal ulcer occurred in a rheumatic patient (Test Example 3); format: in vivo, human; details: same ointment as Test Example 2 (0.5%)
Text: (Dermal ulcer occurred in a rheumatic patient)
The same ointment as used in Test Example 2 was applied directly or applied using a gauze over which said ointment had been spread, to a dermal ulcer occurred on a sacral region, sciatic tuber region, elbow head, inner and outer ankle regions and heel region of a person suffering from arthrorheumatism under hospital treatment.

Compound: CC(C=CC1=C(C)CCCC1(C)C)=CC=CC(C)=CC(=O)Oc1c(C)c(C)c2c(c1C)CCC(C)(CCCC(C)CCCC(C)CCCC(C)C)O2 (stereo not drawn) [TOC ester, tocopheryl retinoate]
- LD50 (Acute toxicity in mice; im): > 2500 mg/kg
- LD50 (Acute toxicity in mice; ip): > 10000 mg/kg
- LD50 (Acute toxicity in mice; po): > 10000 mg/kg
- LD50 (Acute toxicity in mice; sc): > 2500 mg/kg
- healing of burn ulcer (burn ulcer): a remarkable improvement in healing of the ulcer
- improvement of callosity (callosity): an improvement such as softening of the callosity
- itching sensation (skin pruritus; one day after treatment): itching sensation ceased
- healing of skin pruritus (skin pruritus; three days after the treatment): the skin pruritus healed perfectly
- healing of housewife eczema (housewife eczema): a marked improvement in healing of the disease
- irritation on eyes (eyes of rabbits): no change was observed
- change in general symptoms, dermal symptoms and body weight (rats; 30 days): no change in general symptoms, dermal symptoms and body weight
- change in blood and physiological examinations, anatomical observation, wet weight of organs, and pathological histological examination (rats; after 30 days): no change was observed at all
- healing of skin keratosis (skin keratosis): a marked improvement in healing of the disease
- rubor or expansion (patch test) (human being): no rubor or expansion was observed at all
- adverse side-effects (eczema craquele; during the period of treatment): no adverse side-effects were observed
- healing of eczema craquele (eczema craquele; one month): a marked improvement in healing of the disease
- healing of eczema craquele (eczema craquele; two months): the disease perfectly healed
- contact skin allergy (guinea pigs): No contact skin allergy was observed
- side effects [1]: almost no side effects
- toxicity [1]: extremely low in toxicity
- Injured area difference, Average ± standard deviation (experimental bedsore; lotion containing 0.5% TOC ester group, 5 rabbits, one week, control 0.907 ± 0.292): 1.82 ± 0.213 cm2
- Injured area after one week (experimental bedsore; lotion containing 0.5% TOC ester once a day, individual rabbits): 1.30 cm2 and 0.98 cm2 and 0.70 cm2 and 0.09 cm2 and 0.23 cm2
- Injured area at the initiation of treatment (experimental bedsore; lotion containing 0.5% TOC ester, individual rabbits, before treatment): 2.68 cm2 and 3.01 cm2 and 1.95 cm2 and 2.20 cm2 and 2.56 cm2
- Injured area, Difference (experimental bedsore; lotion containing 0.5% TOC ester, individual rabbits, initiation minus after one week): 1.38 cm2 and 2.03 cm2 and 1.25 cm2 and 2.11 cm2 and 2.33 cm2
- reduction in the injured area of bedsore (experimental bedsore; lotion containing 0.5% by weight of TOC ester, once a day, one week, 5 rabbits): marked reduction in the injured area of bedsore
- healing of the ulcer after zoster ([2]; same ointment as Test Example 2 (0.5%) on gauze, about one week): a marked improvement in healing of the ulcer
- recurrence ([2]; same ointment as Test Example 2 (0.5%), six months after the healing): no recurrence was observed
- bottom region of deep ulcer, buildup of flesh owing to granulation (bedsore; about one month): marked buildup of flesh owing to granulation at the bottom region of deep ulcer
- improvement in cuticularization along the circumference of ulcer (bedsore; about one month): a remarkable improvement in cuticularization
- width of cuticularization along the circumference of ulcer (bedsore; about one month): about 5 mm
- superficial region of ulcer, epidermization (bedsore; after one week): epidermization was observed on the superficial region of ulcer
- superficial region of ulcer, disappearance of sore and closure (bedsore; two weeks thereafter): sore disappeared from the superficial region of ulcer, and the epidermis was formed to close the sore region
- healing of frostbite (frostbite): an improvement in healing of frostbite
- adverse side effects (dermal ulcer; during treatment period): No adverse side effects was observed
- proliferation of the granulation and epidermization (dermal ulcer; large ulcers, about three months): marked improvements in proliferation of the granulation and in epidermization
- proliferation of the granulation and epidermization (dermal ulcer; small ulcers, about two weeks): marked improvements in proliferation of the granulation and in epidermization
